Results taken from patent EP4768499A1, “MACROCYCLIC PEPTIDE COMPOUND HAVING CELL MEMBRANE PERMEABILITY AND METABOLIC STABILITY, AND LIBRARY CONTAINING SAME” (Chugai Seiyaku Kabushiki Kaisha, priority 2023, dated 2025).
Read-outs that look alike come from different tables or passages of the source. Starred links: 1 amine or outer side, 2 acyl side, 3 side chain; linkers in the order of their positions; H or OH if unused. Positions of bridges follow the written chain, without caps; N, C: chain ends. Non-standard residues stand in square brackets, D forms with d. Residues, ends and D or L forms follow the SMILES beside them. *: point of attachment. NMedβ3hAla = C[C@H](CC(=O)[*:2])N(C)[*:1]; NMeF = CN[C@@H](Cc1ccccc1)C(=O)O; NMeGABA = CN(CCCC(=O)[*:2])[*:1]; NMeI = CC[C@H](C)[C@H](NC)C(=O)O; NMeT = CN[C@H](C(=O)O)[C@@H](C)O; hPhe = N[C@@H](CCc1ccccc1)C(=O)O; NMeβAla = CN(CCC(=O)[*:2])[*:1]; NMeD = CN[C@@H](CC(=O)O)C(=O)O; NMeL = CN[C@@H](CC(C)C)C(=O)O; dNMeV = CN[C@@H](C(=O)O)C(C)C; NMeV = CN[C@H](C(=O)O)C(C)C; d(β3hA) = C[C@@H](N)CC(=O)O; NMeAbu = CC[C@H](NC)C(=O)O; NMeA = CN[C@@H](C)C(=O)O; Piperidide = C1CCN(*)CC1; dNMeA = CN[C@H](C)C(=O)O; Abu = CC[C@H](N)C(=O)O; βAla = NCCC(=O)O; Sar = CNCC(=O)O; tBu = CC(C)(C)*

Experiments:
[1] = Metabolic stability test: liver microsomal stability assay; assay type: in vitro ADME, mouse; conditions: for microsomal CLint at 1 µM: male, pH 7.4, presence of NADPH, read-out: Mouse Hepatic Microsome CLh,int NADPH(+)
Caco-2 cells = assay: Membrane permeability test using Caco-2 cells with preincubation; assay type: in vitro ADME
[2] = as above; assay type: in vitro ADME; conditions: Caco-2
[3] = mouse liver microsomes 0.5 mg protein/mL, compound 1 µM
[4] = mouse liver microsomes 0.5 mg protein/mL, compound 1 µM, absence of NADPH
[5] = Caco-2 cells, preincubation 20 to 24 hours, apical FaSSIF/HBSS 1% DMSO pH 6.0, basal HBSS 4% BSA pH 7.4, basal sample at 180 minutes
[6] = preincubation 20 to 24 hours, Apical FaSSIF/HBSS pH 6.0, Basal HBSS 4% BSA pH 7.4, 180 minutes, read-out: Caco2 Papp

SMILES | microsomal CLint at 1 µM [1, 3] [µL/min/mg] | Mouse Hepatic Microsome CLh,int NADPH(-) [1, 4] [µL/min/mg Protein] | Caco2 Papp (10^-6 cm/sec) (Caco-2 cells; [5]) | Papp A→B [2, 6] [×10⁻⁶ cm/s] | Mouse Hepatic Microsome CLh,int NADPH(-) [1] [µL/min/mg Protein] | Caco2 Papp (10^-6 cm/sec) (Caco-2 cells; Caco-2) | Papp A→B [2] [×10⁻⁶ cm/s]
CC[C@@H]1NC(=O)[C@H](C(C)C)N(C)C(=O)[C@H](C(C)C)NC(=O)[C@H](C)N(C)C(=O)CCN(C)C(=O)[C@H](CCc2ccccc2)NC(=O)[C@H](CC(C)C)N(C)C(=O)[C@H]([C@@H](C)CC)NC(=O)CN(C)C(=O)C[C@@H](C(=O)N2CCCCC2)N(C)C(=O)[C@H](CC(C)C)NC(=O)[C@H](CC(C)C)N(C)C(=O)[C@H]([C@@H](C)O)NC(=O)[C@H](Cc2ccccc2)N(C)C1=O [pd088] ([Sar]I[NMeL][hPhe][NMeβAla][NMeA]V[NMeV][Abu][NMeF]T[NMeL]L[NMeD]-Piperidide; lactam N-14) | 20.9 | 24.2 | 0.11 10^-6 cm/sec | 0.11 |  |  | 
CC[C@@H]1NC(=O)[C@@H]2CCCN2C(=O)[C@H](CC(C)C)N(C)C(=O)[C@H](C(C)C)NC(=O)[C@H](CC(C)C)N(C)C(=O)[C@H]([C@@H](C)O)NC(=O)[C@H](Cc2ccccc2)N(C)C(=O)CN(C)C(=O)C[C@@H](C)N(C)C(=O)[C@H](C(C)C)NC(=O)[C@H](COC(C)(C)C)NC(=O)[C@H](C)N(C)C(=O)[C@H](CC(C)C)NC(=O)[C@H](Cc2ccccc2)N(C)C1=O [pd067] (cyclo([Abu][NMeF]L[NMeA]S(tBu)V[NMedβ3hAla][Sar][NMeF]T[NMeL]V[NMeL]P)) | 17 | 10.8 | <0.12 10^-6 cm/sec | < 0.12 |  |  | 
CC[C@H](C)[C@H]1C(=O)N[C@@H](CC(C)C)C(=O)N(C)[C@@H](CC(C)C)C(=O)N2CCC[C@H]2C(=O)N(C)[C@@H](C(C)C)C(=O)N[C@H](C(=O)N2CCCCC2)CC(=O)N[C@@H](C)C(=O)N(C)[C@@H](CC(C)C)C(=O)N[C@@H](C(C)C)C(=O)N(C)[C@@H](Cc2ccccc2)C(=O)N(C)[C@@H](CC(C)C)C(=O)N[C@@H](C)C(=O)N(C)[C@@H](Cc2ccccc2)C(=O)N[C@@H]([C@@H](C)O)C(=O)N1C [pd036] (A[NMeL]V[NMeF][NMeL]A[NMeF]T[NMeI]L[NMeL]P[NMeV]D-Piperidide; lactam N-14) | 35.4 | 25.7 | 0.28 10^-6 cm/sec | 0.28 |  |  | 
CC[C@@H]1NC(=O)[C@H](C)N(C)C(=O)[C@H](C(C)C)N(C)C(=O)[C@H]([C@@H](C)CC)NC(=O)[C@H](C)N(C)C(=O)CCCN(C)C(=O)C[C@@H](C)NC(=O)[C@H](C(C)C)N(C)C(=O)[C@H](CCc2ccccc2)NC(=O)CCN(C)C(=O)[C@H]([C@@H](C)O)N(C)C(=O)[C@H](CC(C)C)N(C)C(=O)[C@H]([C@@H](C)CC)NC(=O)[C@H](Cc2ccccc2)N(C)C1=O [pd055] (cyclo([Abu][NMeF]I[NMeL][NMeT][NMeβAla][hPhe][NMeV][d(β3hA)][NMeGABA][NMeA]I[NMeV][NMeA])) | 27.1 | 15.0 | 0.12 10^-6 cm/sec | 0.12 |  |  | 
CC[C@@H]1NC(=O)[C@H](CC(C)C)N(C)C(=O)[C@H]([C@@H](C)CC)NC(=O)CN(C)C(=O)C[C@@H](C)NC(=O)[C@H](C(C)C)N(C)C(=O)[C@H](COC(C)(C)C)NC(=O)[C@H](CC(C)C)N(C)C(=O)[C@H](Cc2ccccc2)N(C)C(=O)[C@H](CC(C)C)NC(=O)CN(C)C(=O)[C@H]([C@@H](C)O)NC(=O)[C@H](CC(C)C)N(C)C1=O [pd129] (cyclo([Abu][NMeL]T[Sar]L[NMeF][NMeL]S(tBu)[NMeV][d(β3hA)][Sar]I[NMeL])) | 76.5 | 19.7 | 0.71 10^-6 cm/sec | 0.71 |  |  | 
CC[C@H](C)[C@H]1C(=O)N[C@@H]([C@@H](C)O)C(=O)N(C)CC(=O)N(C)[C@@H](CC(C)C)C(=O)N(C)[C@@H](Cc2ccccc2)C(=O)N[C@H](C(=O)N2CCCCC2)CC(=O)N(C)[C@@H](C)C(=O)N[C@@H](CC(C)C)C(=O)N(C)[C@@H](Cc2ccccc2)C(=O)N(C)CCC(=O)N(C)[C@@H](CC(C)C)C(=O)N(C)CCC(=O)N[C@@H](CC(C)C)C(=O)N1C [pd120] ([NMeA]L[NMeF][NMeβAla][NMeL][NMeβAla]L[NMeI]T[Sar][NMeL][NMeF]D-Piperidide; lactam N-13) | 25.8 | 18.4 | 0.69 10^-6 cm/sec | 0.69 |  |  | 
CC[C@H](C)[C@@H]1NC(=O)[C@H](Cc2ccccc2)N(C)C(=O)[C@H](C(C)C)NC(=O)[C@@H](C)N(C)C(=O)C[C@@H](C)NC(=O)[C@H](C(C)C)N(C)C(=O)[C@H](Cc2ccccc2)N(C)C(=O)[C@H](COC(C)(C)C)NC(=O)[C@H](CC(C)C)N(C)C(=O)[C@H](C)N(C)C(=O)[C@@H]2CCCN2C(=O)[C@H]([C@@H](C)O)NC(=O)[C@H](CC(C)C)N(C)C1=O [pd130] (cyclo(I[NMeL]TP[NMeA][NMeL]S(tBu)[NMeF][NMeV][d(β3hA)][dNMeA]V[NMeF])) | 22.7 | 6.8 | 3.88 10^-6 cm/sec | 3.88 |  |  | 
CC[C@H]1C(=O)N(C)[C@@H](CC(C)C)C(=O)N2CCC[C@H]2C(=O)N(C)[C@@H](CC)C(=O)N[C@@H](CCc2ccccc2)C(=O)N(C)[C@@H](C)C(=O)N(C)[C@@H](CC)C(=O)N[C@@H](C(C)C)C(=O)N(C)[C@H](C)CC(=O)N(C)CC(=O)N(C)[C@@H](Cc2ccccc2)C(=O)N[C@@H]([C@@H](C)O)C(=O)N(C)[C@@H](CC(C)C)C(=O)N[C@@H](C(C)C)C(=O)N1C [pd073] (cyclo([NMeA][NMeAbu]V[NMedβ3hAla][Sar][NMeF]T[NMeL]V[NMeAbu][NMeL]P[NMeAbu][hPhe])) | 24.3 | 2.9 | <0.12 10^-6 cm/sec | < 0.12 |  |  | 
CC[C@H](C)[C@@H]1NC(=O)[C@H](CC(C)C)N(C)C(=O)CCCN(C)C(=O)C[C@@H](C)N(C)C(=O)[C@H](CC(C)C)NC(=O)[C@H](CC)N(C)C(=O)[C@H](C(C)C)N(C)C(=O)[C@H](C)N(C)C(=O)[C@H](CC(C)C)N(C)C(=O)[C@H](COC(C)(C)C)NC(=O)[C@H](Cc2ccccc2)N(C)C(=O)[C@H](Cc2ccccc2)N(C)C(=O)CN(C)C1=O [pd143] (cyclo(I[Sar][NMeF][NMeF]S(tBu)[NMeL][NMeA][NMeV][NMeAbu]L[NMedβ3hAla][NMeGABA][NMeL])) | 39.3 | 21.0 | 4.73 10^-6 cm/sec | 4.73 |  |  | 
CC[C@H]1C(=O)N[C@@H](C(C)C)C(=O)N[C@H](C(=O)N2CCCCC2)CC(=O)N(C)[C@H](C(C)C)C(=O)N(C)[C@@H](Cc2ccccc2)C(=O)N[C@@H](CC(C)C)C(=O)N(C)CC(=O)N[C@@H](CC(C)C)C(=O)N[C@@H]([C@@H](C)O)C(=O)N(C)[C@@H](CC(C)C)C(=O)N(C)[C@@H](C(C)C)C(=O)N[C@@H](C)C(=O)N[C@@H](COC(C)(C)C)C(=O)N(C)[C@@H](Cc2ccccc2)C(=O)N1C [pd020] ([dNMeV][NMeF]L[Sar]LT[NMeL][NMeV]AS(tBu)[NMeF][NMeAbu]VD-Piperidide; lactam N-14) | 33.3 | 24.9 | <0.11 10^-6 cm/sec | < 0.11 |  |  | 
CC[C@@H]1NC(=O)[C@H](CC(C)C)N(C)C(=O)CCNC(=O)[C@H](Cc2ccccc2)N(C)C(=O)[C@H](Cc2ccccc2)N(C)C(=O)CNC(=O)[C@H]([C@@H](C)CC)NC(=O)[C@H](CC(C)C)N(C)C(=O)CCCN(C)C(=O)C[C@@H](C)N(C)C(=O)[C@H](CC(C)C)NC(=O)[C@H]([C@@H](C)CC)NC(=O)[C@H](C)N(C)C(=O)[C@H](C(C)C)NC1=O [pd062] (cyclo([Abu]V[NMeA]IL[NMedβ3hAla][NMeGABA][NMeL]IG[NMeF][NMeF][βAla][NMeL])) |  |  |  |  | 24.1 | <0.11 10^-6 cm/sec | < 0.11
CC[C@H](C)[C@@H]1NC(=O)[C@H](CC(C)C)N(C)C(=O)[C@H](CC(C)C)NC(=O)[C@H](C)N(C)C(=O)C[C@@H](C(=O)N2CCCCC2)N(C)C(=O)[C@H](C)N(C)C(=O)[C@H](CC(C)C)NC(=O)[C@H](C(C)C)N(C)C(=O)[C@H](CC(C)C)N(C)C(=O)CNC(=O)[C@H]([C@@H](C)CC)N(C)C(=O)[C@H](Cc2ccccc2)N(C)C(=O)[C@H](C)NC(=O)[C@H](Cc2ccccc2)N(C)C1=O [pd079] ([NMeA]L[NMeL]I[NMeF]A[NMeF][NMeI]G[NMeL][NMeV]L[NMeA][NMeD]-Piperidide; lactam N-14) | 26.1 | 38.4 | 0.12 10^-6 cm/sec | 0.12 |  |  | 
CC[C@H](C)[C@@H]1NC(=O)[C@H](CC(C)C)N(C)C(=O)[C@H](CC(C)C)NC(=O)[C@H](C)N(C)C(=O)C[C@@H](C)NC(=O)CN(C)C(=O)[C@H](CC(C)C)N(C)C(=O)[C@H]([C@@H](C)O)NC(=O)[C@H](C(C)C)NC(=O)[C@H]([C@@H](C)CC)N(C)C(=O)[C@H](COC(C)(C)C)NC(=O)[C@H](CC(C)C)N(C)C(=O)[C@H](C)NC(=O)[C@H](Cc2ccccc2)N(C)C1=O [pd009] (cyclo(A[NMeL]S(tBu)[NMeI]VT[NMeL][Sar][d(β3hA)][NMeA]L[NMeL]I[NMeF])) | 38.9 | 42.4 | 0.13 10^-6 cm/sec | 0.13 |  |  | 
